Laboratory results taken from patent publication US11466007B2, “Substituted lactams showing serotonin 5-HT receptor activity” (Sumitomo Pharma Co., Ltd., priority 2018, dated 2022).

Assay: Test 4: metabolic stability test in human hepatic microsome
Type: in vitro ADME
Conditions: 0.1 mg/mL microsome, 0.1 μmol/L compound, NADPH, 37° C., 30 minutes
Protocol: Test 4: Metabolic Stability Test in Human Hepatic Microsome
The stability of the present compound in human hepatic microsome metabolism was evaluated as mentioned below. Human hepatic microsome was obtained from Xenontech. Human hepatic microsome, NADPH, and each test compound were mixed in 25 mmol/L phosphate buffer solution (pH 7.4) to reach the following concentrations as shown below, and the mixture was incubated at 37° C. for 30 minutes. • Human hepatic microsome: 0.1 mg/mL • NAPDH: 3.2 mmol/L • Test compound: 0.1 μmol/L
The residual ratio of the test compound in each sample after 30 minutes was measured by LC-MS, and the metabolic stability in human hepatic microsome was calculated from the following formula. Metabolic stability in human hepatic microsome (mL/min/mg protein)=−LN(residual ratio)/30/0.1

Structure (SMILES)	Metabolic stability in human hepatic microsome [mL/min/mg protein]
Cn1ccc2c1CCCN(CCN1CCN(c3noc4ccccc34)CC1)C2=O [Example 109, 5-{2-[4-(1,2-Benzoisoxazol-3-yl)piperazin-1-yl]ethyl}-1-methyl-5,6,7,8-tetrahydropyrrolo[3,2-c]azepin-4 (H)-one]	<0.01
Cc1cc2ccn(CCN3CCN(c4noc5ccccc45)CC3)c(=O)c2cn1 [Example 113, 2-{2-[4-(1,2-Benzoisoxazol-3-yl)piperazin-1-yl]ethyl}-6-methyl-2,7-naphthyridin-1(2H)-one]	0.079
O=c1c2cccnc2ccn1CCN1CCN(c2noc3ccccc23)CC1 [Example 115]	<0.05
O=c1c2cnccc2ccn1CCN1CCN(c2noc3ccccc23)CC1 [Example 116]	0.1
O=c1c2ncccc2ccn1CCN1CCN(c2noc3ccccc23)CC1 [Example 117]	<0.05
O=C1c2cccnc2CCN1CCN1CCC(c2noc3cc(F)ccc23)CC1 [Example 121]	<0.05
CC(CN1CCC(c2noc3cc(F)ccc23)CC1)N1CCc2cccnc2C1=O (stereo not drawn) [Example 122]	<0.05
O=C1c2ncccc2CCN1CCN1CCN(c2noc3cc(F)ccc23)CC1 [Example 123]	<0.05
O=C1c2ncccc2CCN1CCN1CCC(c2noc3cc(F)ccc23)CC1 [Example 125]	<0.05
O=C1c2occc2CCN1CCN1CCC(c2noc3ccccc23)CC1 [Example 127]	<0.05
O=C1c2cccnc2CCN1CCN1CCC(c2noc3ccccc23)CC1 [Example 128]	<0.05
O=c1c2cncnc2ccn1CCN1CCC(c2noc3ccccc23)CC1 [Example 129]	0.084
Cn1ncc2c1CCN(CCN1CCC(c3noc4ccccc34)CC1)C2=O [Example 130]	<0.05
Cn1ncc2c1CCN(CCN1CCN(c3noc4ccccc34)CC1)C2=O [Example 131]	<0.05
Cn1cnc2c1C(=O)N(CCN1CCC(c3noc4ccccc34)CC1)CC2 [Example 133]	<0.05
Cn1cnc2c1C(=O)N(CCN1CCC(c3noc4ccccc34)CC1)CCC2 [Example 134]	<0.05
Cc1cc2c(cn1)C(=O)N(CCN1CCC(c3noc4ccccc34)CC1)CC2 [Example 135]	<0.05
Cc1cncc2c1CCN(CCN1CCC(c3noc4ccccc34)CC1)C2=O [Example 138]	0.083
Cc1nc(C)c2c(n1)CCN(CCN1CCC(c3noc4ccccc34)CC1)C2=O [Example 139]	<0.05
O=C1c2nc(Cl)ccc2CCN1CCN1CCN(c2noc3ccccc23)CC1 [Example 144]	<0.05
O=C1c2cccnc2CCN1CCN1CCN(c2noc3ccccc23)CC1 [Example 153, 6-{2-[4-(1,2-Benzoisoxazol-3-yl)piperazin-1-yl]ethyl}-7,8-dihydro-1,6-naphthyridin-5(6H)-one]	<0.05
Cc1nc2c(o1)C(=O)N(CCN1CCC(c3noc4ccccc34)CC1)CCC2 [Example 154]	<0.05
Cn1cc2c(n1)C(=O)N(CCN1CCC(c3noc4ccccc34)CC1)CC2 [Example 156]	<0.05
Cc1nc2c(o1)CCCN(CCN1CCC(c3noc4ccccc34)CC1)C2=O [Example 157]	<0.05
